13 compounds from ChEMBL document CHEMBL2380305, “Discovery of thiazolobenzoxepin PI3-kinase inhibitors that spare the PI3-kinase β isoform” (Bioorg Med Chem Lett, 2013) can be followed below.

Molecules are shown by their SMILES.

As usually defined, the clearance is a measure of how efficiently the substance is removed, as volume per time. Read a high clearance as a high capacity for elimination. Broadly, the Papp A→B is the apparent permeability from the apical to the basolateral side of a cell layer.

The nature of data set [1]: in vivo. The following applies: nude, mouse, plasma, iv, 1 mg/kg.
Data set [2] can be described thus: Oral bioavailability in nude mouse at 25 mg/kg. It counts as ADME, organism-based. As to conditions: in vivo.
A short description of data set [3]: Apparent permeability across apical to basolateral side in MDCK cells. Type of data set: ADME, cell-based, Canis lupus familiaris. The following applies: dog.
The nature of data set [4]: Oral bioavailability in Beagle dog at 2 mg/kg. It counts as ADME, organism-based, Canis lupus familiaris. As to conditions: in vivo.
Data set [5] in a line: in vivo. As to conditions: Sprague-Dawley, rat, plasma, iv, 1 mg/kg.
Data set [6] can be described thus: Oral bioavailability in Sprague-Dawley rat at 5 mg/kg. It counts as ADME, organism-based. The following applies: in vivo.
A short description of data set [7]: Plasma clearance in Beagle dog at 1 mg/kg, iv. Type of data set: ADME, organism-based, Canis lupus familiaris. Details: dose 1 mg/kg, route intravenous.
A further data set relates to Rattus norvegicus. The data set is described as follows: Unbound plasma clearance in Sprague-Dawley rat at 1 mg/kg, iv. It counts as ADME, organism-based. Details: dose 1 mg/kg, route intravenous. The following applies: in vivo.
The nature of data set [8]: Plasma clearance in dog. Type of data set: ADME, organism-based, Canis lupus familiaris.

Regarding `CC(C)n1ncnc1-c1nc2c(s1)CCOc1cc(-c3cnn(CCO)c3)ccc1-2`, the clearance is 9.5 mL/min/kg in “in vivo [1]”, 5.4 mL/min/kg in “in vivo [5]” and 14 mL/min/kg in [7]. Further, the bioavailability worked out at 110% in data set [2], 22% in [4] and 83% in [6]. Also, in [3], the Papp A→B was determined as 16 ×10⁻⁶ cm/s.
Consider `CC(C)n1c(-c2nc3c(s2)CCOc2cc(-c4cnn(CC(C)(C)O)c4)ccc2-3)n[nH]c1=O`, for which the clearance in “in vivo [1]” was determined as 22 mL/min/kg; in the data set “in vivo [5]”, 84 mL/min/kg.
For `CC(C)n1ncnc1-c1nc2c(s1)CCOc1cc(C3CN(C[C@H](O)CO)C3)ccc1-2`, in that order: 165 mL/min/kg and 57 mL/min/kg.
Taken in the same sequence, the figures for `CC(C)n1nc(N)nc1-c1nc2c(s1)CCOc1cc(-c3cnn(CC(C)(C)O)c3)ccc1-2` were 4 mL/min/kg and 55 mL/min/kg.
On to `CC(C)n1ncnc1-c1nc2c(s1)CCOc1cc(-c3cnn(CC(C)(C)O)c3)ccc1-2`, for which the results for the clearance in the data set “in vivo [1]” and in the data set “in vivo [5]” were 3.1 mL/min/kg and 6.8 mL/min/kg, respectively.
In the case of `CC(C)n1ncnc1-c1nc2c(s1)CCOc1cc(C3CN(C(C)(C)C(N)=O)C3)ccc1-2`, the clearance worked out at 104 mL/min/kg in “in vivo [1]” and 55 mL/min/kg in the data set “in vivo [5]”.
In the data set on Rattus norvegicus, `CC(C)n1ncnc1-c1nc2c(s1)CCOc1cc(C3CN(C(=O)C(C)(C)N)C3)ccc1-2` registered a CL free of 1153 mL/min/kg. This compound also came in with a clearance in “in vivo [5]” of 60 mL/min/kg.
As to `CC(C)n1ncnc1-c1cc2c(s1)-c1ccc(C(N)=O)cc1OCC2`, in data set [8], the clearance amounted to 100 mL/min/kg.
Turning to `CC(C)n1ncnc1-c1nc2c(s1)CCOc1cc(-c3cnn(C(C)(C)C(N)=O)c3)ccc1-2`, the figures for the clearance in the data set “in vivo [1]” and in the data set “in vivo [5]” were 13.4 mL/min/kg and 10 mL/min/kg, respectively. This compound showed a CL free with Rattus norvegicus of 625 mL/min/kg.
For the compound `Cc1nc(-c2nc3c(s2)CCOc2cc(-c4cnn(CCO)c4)ccc2-3)n(C(C)C)n1`, the clearance in the data set “in vivo [1]” was determined as 2.2 mL/min/kg; in the data set “in vivo [5]”, 1.9 mL/min/kg.
For `CC(C)n1ncnc1-c1nc2c(s1)CCOc1cc(C3CN(CCO)C3)ccc1-2`, in that order: 132 mL/min/kg and 128 mL/min/kg.
Taken in the same sequence, the figures for `CC(C)n1ncnc1-c1nc2c(s1)CCOc1cc(C3CN(CC(C)(C)O)C3)ccc1-2` were 170 mL/min/kg and 163 mL/min/kg.
For `CC(C)n1ncnc1-c1nc2c(s1)CCOc1cc(-c3cnn(CS(C)(=O)=O)c3)ccc1-2`, in that order: 3.2 mL/min/kg and 6.1 mL/min/kg.
